Holding throughout (format): in vivo
Data set [1] concerns barnyard grass (Echinochloa crus-galli Beauv.). Kind of data set: Test Example 1: herbicidal effect on paddy field weeds before emergence. The conditions noted are these: Dosage 5 kg/ha. The essentials:
(§1)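 Soil in pots is brought to paddy state and seeded with barnyard grass and bulrush; before germination, the soil receives a predetermined dosage of test compound in solution. After twenty-one days, control rate relative to untreated pots is calculated and graded.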

Data set [2] has as its system bulrush (Scirpus juncoides Roxb.). The description is as above. The conditions noted are these: Dosage 5 kg/ha. The gist of the method:
as §1

The subject of data set [3] is barnyard grass (Echinochloa crus-galli Beauv.). Kind of data set: Test Example 2: herbicidal effect on paddy field weeds after emergence. The conditions noted are these: Dosage 5 kg/ha; one-leaved stage; 21 days after treatment. The gist of the method: (§2)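 Weeds were sown in 1/10000 are pots of soil flooded to paddy conditions and grown to the one-leaf stage, then the soil was treated with a solution of compound at a predetermined dosage.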

Data set [4] deals with bulrush (Scirpus juncoides Roxb.). The data set is described as above. The conditions noted are these: Dosage 5 kg/ha; one-leaved stage; 21 days after treatment. The essentials: as §2
The subject of data set [5] is monochoria (Monochoria vaginalis Presl). The data set is described as above. The conditions noted are these: Dosage 5 kg/ha; one-leaved stage; 21 days after treatment. The essentials: as §2
Data set [6] deals with barnyard grass (Echinochloa crus-galli Beauv.), Ec. Briefly: Test Example 3: herbicidal effect on upland weeds before emergence. The conditions noted are these: dosage 5 kg/ha. The gist of the method: (§3)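 Read-out is the weed-killing rate, scored fourteen days after a single spray application made before the weeds emerged. The spray was a liquid agent carrying the active compound at a prescribed dose.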

Data set [7] deals with bird's eye speedwell (Veronica persica Poir.), Vp. The description is as above. The conditions noted are these: dosage 5 kg/ha. The essentials:
as §3

Data set [8] concerns cleavers (Galium aparine L.), Ga. Described as above. The conditions noted are these: dosage 5 kg/ha. The essentials:
as §3

For data set [9], the system named is cocklebur (Xanthium strumarium L.), Xs. The data set is described as above. The conditions noted are these: dosage 5 kg/ha. The gist of the method: as §3
The subject of data set [10] is forxtail grass (Alopecurus aequalis var. amurensis Ohwi), Am. Described as above. The conditions noted are these: foxtail grass, dosage 5 kg/ha. The essentials: as §3
Data set [11] concerns velvetleaf (Abutilon theophtasti L.), At. The description is as above. The conditions noted are these: dosage 5 kg/ha. The essentials:
as §3

The test system of another data set is soybean plant (So). Kind of data set: Test Example 3: phytotoxicity to upland crop plants, treatment before emergence. The conditions noted are these: dosage 5 kg/ha. The essentials: (§4)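 A sprayed liquid agent with a prescribed concentration of active compound was applied pre-emergence. Visual phytotoxicity on soybean and wheat was rated by criterion two weeks (14 days) after application, concurrently with the herbicidal assessment.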

In the next data set the test system is wheat (Wh). Described as above. The conditions noted are these: dosage 5 kg/ha. The essentials: as §4
For data set [12], the system named is barnyard grass (Echinochloa crus-galli Beauv.), Ec. Briefly: Test Example 4: herbicidal effect on upland weeds after emergence. The conditions noted are these: dosage 5 kg/ha; sprayed after emergence; judged 14 days after treatment. The gist of the method:
(§5)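 Soil vats; sown weeds + soybean/wheat; spray at leaf-stage, prescribed compound concentration; weed-kill rate judged day 14.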

The test system of data set [13] is bird's eye speedwell (Veronica persica Poir.), Vp. The data set is described as above. The conditions noted are these: dosage 5 kg/ha; sprayed after emergence; judged 14 days after treatment. The essentials:
as §5

Data set [14] concerns cleavers (Galium aparine L.), Ga. The description is as above. The conditions noted are these: dosage 5 kg/ha; sprayed after emergence; judged 14 days after treatment. The essentials: as §5
The test system of data set [15] is cocklebur (Xanthium strumarium L.), Xs. The description is as above. The conditions noted are these: dosage 5 kg/ha; sprayed after emergence; judged 14 days after treatment. The gist of the method: as §5
For data set [16], the system named is forxtail grass (Alopecurus aequalis var. amurensis Ohwi), Am. The data set is described as above. The conditions noted are these: dosage 5 kg/ha; sprayed after emergence; judged 14 days after treatment. The gist of the method: as §5
Data set [17] relates to velvetleaf (Abutilon theophtasti L.), At. Described as above. The conditions noted are these: dosage 5 kg/ha; sprayed after emergence; judged 14 days after treatment. The gist of the method: as §5
In another data set the test system is soybean plant. Briefly: Test Example 4: phytotoxicity to upland crop plants, treatment after emergence. The conditions noted are these: dosage 5 kg/ha, sprayed after emergence, judged 14 days after treatment. The gist of the method:
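Seeds sown in soil and covered. Plants raised to specified leaf stages. Agent with test compound at a prescribed concentration sprayed. Herbicidal effect and crop damage scored after 14 days as weed-killing rate.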

Another data set deals with wheat. The data set is described as above. The conditions noted are these: dosage 5 kg/ha, sprayed after emergence, judged 14 days after treatment. The gist of the method:
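Post-emergence foliar spray, compound at prescribed concentration, applied at defined leaf stages; weeds plus soybean/wheat grown in soil vats. Read-out: weed-killing rate and crop injury, 14 d post-treatment.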

The values below come from US6444617B1, “Fused-heterocycle dicarboxylic acid diamide derivatives or salts thereof, herbicide and usage thereof” (Nihon Nohyaku Co., Ltd., priority 1998, dated 2002).

For `CCc1ccc(Cl)c(CC)c1NC(=O)c1cc2ccccc2nc1C(=O)NC(C)(C)C` [359-4], the “Pre-emergence treatment Barnyard grass (herbicidal effect)” value (shortened to “Pre-emergence treatment Barnyard grass”) in data set [1] was 5 (Weed-killing rate is 100%.). Further, in [2], the “Pre-emergence treatment Bulrush (herbicidal effect)” value (shortened to “Pre-emergence treatment Bulrush”) is 5 (Weed-killing rate is 100%.). Moreover, the “Post-emergence treatment Barnyard grass (herbicidal effect)” value (“Post-emergence treatment Barnyard grass” below) in data set [3] is listed as 5 (Weed-killing rate is 100%.). Moreover, the “Post-emergence treatment Bulrush (herbicidal effect)” value (from here on “Post-emergence treatment Bulrush”) in [4] is listed as 5 (Weed-killing rate is 100%.). In addition, in data set [5], the “Post-emergence treatment Monochoria (herbicidal effect)” value (“Post-emergence treatment Monochoria” below) is 5 (Weed-killing rate is 100%.). The “Herbicidal effect Ec” value in data set [6] and in [12] was 5 (Weed-killing rate is 100%.) throughout. In addition, the “Herbicidal effect Vp” value in data set [7] and in [13] was 5 (Weed-killing rate is 100%.) in each case. For the same molecule, the “Herbicidal effect Ga” value in data set [8] and in data set [14] was 5 (Weed-killing rate is 100%.) in each case. Moreover, the “Herbicidal effect Xs” value in data set [9] and in [15] was 5 (Weed-killing rate is 100%.) in each case. For the same molecule, the “Herbicidal effect Am” value in [10] and in [16] was 5 (Weed-killing rate is 100%.) in each case. The “Herbicidal effect At” value in [11] and in [17] was 5 (Weed-killing rate is 100%.) in each case. In addition, the “Phytotoxicity So” value in the data set with soybean plant (So) is 2 (Crop-killing rate is 40-69%.); with soybean plant it was 4 (Crop-killing rate is 90-99%.). Moreover, the results for the “Phytotoxicity Wh” value in the data set on wheat (Wh) and in the data set on wheat were 0 (Crop-killing rate is 0-20% (No Phytotoxicity).) and 2 (Crop-killing rate is 40-69%.), respectively.
For `CCCNC(=O)c1nc2ccc(OC)cc2cc1C(=O)Nc1c(CC)ccc(Cl)c1CC` [compound 290], the “Pre-emergence treatment Barnyard grass” value in data set [1] was 5 (Weed-killing rate is 100%.). Moreover, the “Pre-emergence treatment Bulrush” value in [2] is on record as 5 (Weed-killing rate is 100%.). For the same molecule, in [3], the “Post-emergence treatment Barnyard grass” value is recorded as 5 (Weed-killing rate is 100%.). In data set [4], the “Post-emergence treatment Bulrush” value is 5 (Weed-killing rate is 100%.). For the same molecule, the “Post-emergence treatment Monochoria” value in data set [5] is 5 (Weed-killing rate is 100%.). Besides, the “Herbicidal effect Ec” value in data set [6] and in data set [12] was 5 (Weed-killing rate is 100%.) each time. For the same molecule, the “Herbicidal effect Vp” value in data set [7] and in [13] was 5 (Weed-killing rate is 100%.) each time. Also, the “Herbicidal effect Ga” value in [8] and in data set [14] was 5 (Weed-killing rate is 100%.) each time. For the same molecule, the “Herbicidal effect Xs” value in data set [9] and in [15] was 4 (Weed-killing rate is 90-99%.) in each case. For the same molecule, the “Herbicidal effect Am” value in data set [10] and in [16] was 5 (Weed-killing rate is 100%.) in each case. Further, the “Herbicidal effect At” value in [11] and in data set [17] was 5 (Weed-killing rate is 100%.) throughout. In addition, the “Phytotoxicity So” value with soybean plant (So) is recorded as 1 (Crop-killing rate is 1-39%.); with soybean plant, 2 (Crop-killing rate is 40-69%.). Besides, the “Phytotoxicity Wh” value with wheat (Wh) was 2 (Crop-killing rate is 40-69%.); in the data set on wheat, 3 (Crop-killing rate is 70-89%.).
For `CCCNC(=O)c1nc2ncccc2cc1C(=O)Nc1cccc(Cl)c1C` [compound 375], the “Pre-emergence treatment Barnyard grass” value in [1] is on record as 5 (Weed-killing rate is 100%.). Besides, in data set [2], the “Pre-emergence treatment Bulrush” value is listed as 5 (Weed-killing rate is 100%.). For the same molecule, in data set [3], the “Post-emergence treatment Barnyard grass” value was 5 (Weed-killing rate is 100%.). In addition, the “Post-emergence treatment Bulrush” value in data set [4] is 5 (Weed-killing rate is 100%.). Further, the “Post-emergence treatment Monochoria” value in [5] was 5 (Weed-killing rate is 100%.). Further, the “Herbicidal effect Ec” value in data set [6] and in data set [12] was 5 (Weed-killing rate is 100%.) each time. Moreover, the “Herbicidal effect Vp” value in data set [7] and in data set [13] was 5 (Weed-killing rate is 100%.) each time. The “Herbicidal effect Ga” value in data set [8] and in [14] was 5 (Weed-killing rate is 100%.) in each case. Besides, the “Herbicidal effect Xs” value in data set [9] and in data set [15] was 5 (Weed-killing rate is 100%.) in each case. Moreover, the “Herbicidal effect Am” value in [10] and in data set [16] was 5 (Weed-killing rate is 100%.) in each case. Further, the “Herbicidal effect At” value in [11] and in data set [17] was 5 (Weed-killing rate is 100%.) throughout. Also, the “Phytotoxicity So” value with soybean plant (So) was 3 (Crop-killing rate is 70-89%.); with soybean plant, 4 (Crop-killing rate is 90-99%.). Also, the figures for the “Phytotoxicity Wh” value in the data set on wheat (Wh) and in the data set on wheat were 3 (Crop-killing rate is 70-89%.) and 4 (Crop-killing rate is 90-99%.), respectively.
With `CCCNC(=O)c1nc2c(cc1C(=O)Nc1c(CC)ccc(Cl)c1CC)OCCC2` [compound 486], the “Pre-emergence treatment Barnyard grass” value in [1] is listed as 5 (Weed-killing rate is 100%.). Also, the “Pre-emergence treatment Bulrush” value in [2] is given as 5 (Weed-killing rate is 100%.). In addition, the “Post-emergence treatment Barnyard grass” value in [3] is 5 (Weed-killing rate is 100%.). In addition, the “Post-emergence treatment Bulrush” value in data set [4] is on record as 5 (Weed-killing rate is 100%.). The “Post-emergence treatment Monochoria” value in data set [5] is 5 (Weed-killing rate is 100%.). Besides, the “Herbicidal effect Ec” value in [6] and in data set [12] was 5 (Weed-killing rate is 100%.) each time. For the same molecule, the “Herbicidal effect Vp” value in data set [7] and in data set [13] was 5 (Weed-killing rate is 100%.) throughout. In addition, the “Herbicidal effect Ga” value in data set [8] and in data set [14] was 5 (Weed-killing rate is 100%.) in each case. Besides, the “Herbicidal effect Xs” value in data set [9] and in [15] was 5 (Weed-killing rate is 100%.) throughout. Besides, the “Herbicidal effect Am” value in [10] and in [16] was 5 (Weed-killing rate is 100%.) in each case. The “Herbicidal effect At” value in data set [11] and in [17] was 5 (Weed-killing rate is 100%.) in each case. Moreover, the “Phytotoxicity So” value in the data set with soybean plant (So) and in the data set with soybean plant was 4 (Crop-killing rate is 90-99%.) each time. The “Phytotoxicity Wh” value with wheat (Wh) and with wheat was 4 (Crop-killing rate is 90-99%.) each time.
